Measurements from patent US20250368639A1, “SOLID FORMS OF A COMPOUND FOR TREATING OR PREVENTING HYPERURICEMIA OR GOUT” (ATOM THERAPEUTICS CO., LTD, priority 2022, published 2025).
In brackets after ≈: the same amount, converted by molar mass.

How the values were obtained:
Format in all cases: physicochemical
[1] = Solubility in water, buffers and bio-relevant media (37° C., 24 h shaking, HPLC); settings: 37° C., 24 h
Method: The solubility of Form 1, Form 2, Form 5D, Form 6, Form 8, and Form 11 was analyzed in water, 0.1NaqueousHCl, pH4.5 acetate buffer solution, pH6.8 phosphate buffer solution, simulated gastric fluid (SGF), Fasted State Simulated Intestinal Fluid (FaSSIF), and Fed State Simulated Intestinal Fluid (FeSSIF).
About 5 mg or 10 mg of sample was weighed out into each vial and mixed with about 5 ml of medium to form a solution. The target concentration for the potassium salt in water was 2 mg/ml; and the target concentration for all other forms were 1 mg/mL. All samples were kept shaking at 200 rounds per minute (rpm) under 37° C. for 24 hours. The pH value of these samples were determined after shaking for 24 hours. Subsequently, they were centrifuged at the speed of 12000 rpm for 2 mins. The supernatant was diluted with methanol as necessary, and the concentrations were determined by HPLC. When the solubility of potassium salt was tested in water, the supernatant was diluted 100 times, while no other samples were diluted. The HPLC analysis utilizes Agilent Eclipse XDB-C8 4.6*150 mm, 5 μm column at 40° C., a mobile phase of 0.1% TFA: ACN=70:30, an injection volume of 10 μl, a flow rate of 1.0 ml/min, a diluent of methanol, and a detection wavelength of 234 nm.

[2] = Suspensions for animal formulation in 0.5% CMC-Na (XRPD); settings: about 30 mg in 30 ml, sonication
Method: About 30 mg of Form 1, Form 2, and Form 5D were each added into a respective 40 ml glass bottle and mixed with 30 ml of 0.5% CMC-Na solution. The solids were dispersed uniformly in the solution with the aid of sonication. After that, the solids were isolated by centrifugation, dried at room temperature, and the dry solid analyzed with XRPD.

[3] = Solid state stability under stress conditions (XRPD, HPLC); settings: for XRPD pattern after stress storage: closed vial about 60° C., closed vial about 40° C./75% RH, 1 week and 2 weeks
Method: Form 1. Form 2, Form 6, Form 8, and Form 11 were each placed under following stress conditions: (1) in a closed vial at a temperature of about 60° C., and (2) in a closed vial at a temperature of about 40′° C. and a humidity of about 75% RH. The solids were analyzed with XRPD at 1 week and 2 weeks intervals.
Additionally, all forms were analyzed with HPLC for impurity at the 1 week and 2 weeks intervals. In a typical analysis, about 5 mg of forms were each dissolved in 10 ml of diluents with the aid of sonication for 2 minutes. THF was used as the diluent for Form 1, and methanol was used as the diluent for Form 6, Form 8, and Form 11. The HPLC analysis utilized Agilent Eclipse XDB-C18 4.6*150 mm. 3.5 μm at 30° C., a mobile phase of a gradient between 0.1% H3PO4 and acetonitrile (9:1 to 2:8 to 9:1), an injection volume of 10 μl, a flow rate of 1.0 ml/min, and a detection wavelength of 214 nm.
Form 2 was further subject to the stability test in an open vial at 40° C. and a relative humidity of 75% RH.

CCc1nc2ccccn2c1C(=O)c1cc(Br)c(O)c(C#N)c1 [Form 1, 3-bromo-5-[(2-ethylimidazo[1,2-a]pyridin-3-yl)carbonyl]-2-hydroxybenzonitrile]
Solubility ([1]; 0.1N HCl): 5.0 µg/mL (≈ 13.5 µM) | Solubility in the buffer solution and bio-relevant medium [1]: low solubilities | Solubility ([1]; FaSSIF): 16.6 µg/mL (≈ 44.8 µM) | Solubility ([1]; FeSSIF): 1.9 µg/mL (≈ 5.13 µM) | Solubility ([1]; SGF): 2.9 µg/mL (≈ 7.83 µM) | Solubility ([1]; Water): 9.4 µg/mL (≈ 25.4 µM) | Solubility ([1]; pH 4.5 acetate buffer): 1.0 µg/mL (≈ 2.7 µM) | Solubility ([1]; pH 6.8 phosphate buffer): 19.8 µg/mL (≈ 53.5 µM) | Crystal form after dispersion in 0.5% CMC-Na solution (XRPD) [2]: did not change | XRPD pattern after stress storage [3]: substantially similar to those received at the initial time

CCc1nc2ccccn2c1C(=O)c1cc(Br)c(O)c(C#N)c1 [Form 2, 3-bromo-5-[(2-ethylimidazo[1,2-a]pyridin-3-yl)carbonyl]-2-hydroxybenzonitrile]
Solubility ([1]; 0.1N HCl): 3.8 µg/mL (≈ 10.3 µM) | Highest concentration among the media [1]: around 40 μg/ml | Solubility in the buffer solution and bio-relevant medium [1]: low solubilities | Solubility ([1]; FaSSIF): 41.8 µg/mL (≈ 113 µM) | Solubility ([1]; FeSSIF): 2.8 µg/mL (≈ 7.56 µM) | Solubility ([1]; SGF): 3.0 µg/mL (≈ 8.1 µM) | Solubility ([1]; Water): 20.0 µg/mL (≈ 54 µM) | Solubility ([1]; pH 4.5 acetate buffer): <1 µg/mL | Solubility ([1]; pH 6.8 phosphate buffer): 24.1 µg/mL (≈ 65.1 µM) | Crystal form after dispersion in 0.5% CMC-Na solution (XRPD) [2]: transformed into Form 1 | XRPD pattern after stress storage [3]: substantially similar to those received at the initial time | XRPD after storage in an open vial ([3]; open vial, 40° C., 75% RH): significant changes at the end of ninth day
